From US20200187502A1, “MICROBIOCIDAL OXADIAZOLE DERIVATIVES” (SYNGENTA PARTICIPATIONS AG, priority 2017, published 2020)

Assays:
[1] = tested on: Puccinia recondita f. Sp. Tritici; assay: Fungicidal activity, wheat leaf disc preventative (brown rust); format: in vivo; settings: foliar, 200 ppm in the applied formulation, wheat leaf segments cv. Kanzler, compared to untreated control, 7 to 9 days after application, read-out: disease control
Outline: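 Wheat cv. Kanzler leaf segments on agar were sprayed with formulated compound in water, then inoculated with spores 1 day later. Incubated at 19° C, 75% rh, 12 h light/12 h dark; percent disease control versus untreated scored 7 to 9 days after application.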

[2] = tested on: Puccinia recondita f. Sp. Tritici; assay: Fungicidal activity, wheat leaf disc curative (brown rust); format: in vivo; settings: foliar, 200 ppm in the applied formulation, wheat leaf segments cv. Kanzler, curative (applied 1 day after inoculation), compared to untreated control, 6 to 8 days after application, read-out: disease control
Outline: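 Read-out is percent disease control relative to untreated segments, assessed 6 to 8 days after treatment once check disease is adequate. Kanzler wheat leaf segments on agar receive fungal spores, then test compound (DMSO stock diluted in 0.025% Tween20 or water) 1 day later, under 19° C and 75% relative humidity.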

[3] = tested on: Glomerella lacenarium (Colletotrichum lacenarium); assay: Fungicidal activity, liquid culture, cucumber preventative (anthracnose); format: cell-based; settings: 20 ppm in the applied formulation, liquid culture in PDB, inhibition of growth measured photometrically 3 to 4 days after application, compared to untreated control, read-out: disease control
Outline: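 Photometric measurement of fungal growth inhibition 3 to 4 days after application gives percent activity relative to untreated check. Conidia were suspended in potato dextrose broth and combined with DMSO compound solutions; incubation at 24° C.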

[4] = tested on: Phakopsora pachyrhizi; assay: Fungicidal activity, soybean leaf disc preventative (Asian soybean rust); format: in vivo; settings: foliar, 200 ppm in the applied formulation, soybean leaf disks, compared to untreated control, 12 to 14 days after application, read-out: disease control
Description: Leaf disks or leaf segments of various plant species are cut from plants grown in a greenhouse. The cut leaf disks or segments are placed in multiwell plates (24-well format) onto water agar. The leaf disks are sprayed with a test solution before (preventative) or after (curative) inoculation. Compounds to be tested are prepared as DMSO solutions (max. 10 mg/ml) which are diluted to the appropriate concentration with 0.025% Tween20 just before spraying. The inoculated leaf disks or segments are incubated under defined conditions (temperature, relative humidity, light, etc.) according to the respective test system. A single evaluation of disease level is carried out 3 to 14 days after inoculation, depending on the pathosystem. Percent disease control relative to the untreated check leaf disks or segments is then calculated.
Soybean leaf disks are placed on water agar in multiwell plates (24-well format) and sprayed with the formulated test compound diluted in water. One day after application leaf discs are inoculated by spraying a spore suspension on the lower leaf surface. After an incubation period in a climate cabinet of 24-36 hours in darkness at 20° C. and 75% rh leaf disc are kept at 20° C. with 12 h light/day and 75% rh. The activity of a compound is assessed as percent disease control compared to untreated when an appropriate level of disease damage appears in untreated check leaf disks (12 to 14 days after application).
The following compounds at 200 ppm in the applied formulation give at least 80% disease control in this test when compared to untreated control leaf disks under the same conditions, which show extensive disease development.

COC(C)C(=O)N(Cc1ccc(-c2noc(C(F)(F)F)n2)s1)OC (stereo not shown) [Compound 1.1, N,2-dimethoxy-N-[[5-[5-(trifluoromethyl)-1,2,4-oxadiazol-3-yl]-2-thienyl]methyl]propanamide]
≥ 80%: pest or weed control at 200 ppm [1] | pest or weed control at 200 ppm [2] | inhibition of growth at 20 ppm [3] | pest or weed control at 200 ppm [4]

CON(Cc1ccc(-c2noc(C(F)(F)F)n2)s1)C(=O)C1CC1 [Compound 1.4, N-methoxy-N-[[5-[5-(trifluoromethyl)-1,2,4-oxadiazol-3-yl]-2-thienyl]methyl]cyclopropanecarboxamide]
≥ 80%: pest or weed control at 200 ppm [1] | pest or weed control at 200 ppm [2] | inhibition of growth at 20 ppm [3] | pest or weed control at 200 ppm [4]

CON(Cc1ccc(-c2noc(C(F)(F)F)n2)s1)C(=O)CNC(C)=O [Compound 1.7, 2-acetamido-N-methoxy-N-[[5-[5-(trifluoromethyl)-1,2,4-oxadiazol-3-yl]-2-thienyl]methyl]acetamide]
≥ 80%: pest or weed control at 200 ppm [1] | pest or weed control at 200 ppm [2] | inhibition of growth at 20 ppm [3] | pest or weed control at 200 ppm [4]

CON(Cc1ccc(-c2noc(C(F)(F)F)n2)s1)C(=O)C1CC1(F)F (stereo not shown) [Compound 1.8, 2,2-difluoro-N-methoxy-N-[[5-[5-(trifluoromethyl)-1,2,4-oxadiazol-3-yl]-2-thienyl]methyl]cyclopropanecarboxamide]
≥ 80%: pest or weed control at 200 ppm [1] | pest or weed control at 200 ppm [2] | inhibition of growth at 20 ppm [3] | pest or weed control at 200 ppm [4]

COCC(=O)N(Cc1ccc(-c2noc(C(F)(F)F)n2)s1)OC [Compound 1.9, N,2-dimethoxy-N-[[5-[5-(trifluoromethyl)-1,2,4-oxadiazol-3-yl]-2-thienyl]methyl]acetamide]
≥ 80%: pest or weed control at 200 ppm [1] | pest or weed control at 200 ppm [2] | inhibition of growth at 20 ppm [3] | pest or weed control at 200 ppm [4]

CON(Cc1ccc(-c2noc(C(F)(F)F)n2)s1)C(=O)C1CCOC1 (stereo not shown) [Compound 1.10, N-methoxy-N-[[5-[5-(trifluoromethyl)-1,2,4-oxadiazol-3-yl]-2-thienyl]methyl]tetrahydrofuran-3-carboxamide]
≥ 80%: pest or weed control at 200 ppm [1] | pest or weed control at 200 ppm [2] | inhibition of growth at 20 ppm [3] | pest or weed control at 200 ppm [4]

COCCC(=O)N(Cc1ccc(-c2noc(C(F)(F)F)n2)s1)OC [Compound 1.11, N,3-dimethoxy-N-[[5-[5-(trifluoromethyl)-1,2,4-oxadiazol-3-yl]-2-thienyl]methyl]propanamide]
≥ 80%: pest or weed control at 200 ppm [1] | pest or weed control at 200 ppm [2] | inhibition of growth at 20 ppm [3] | pest or weed control at 200 ppm [4]

CCC(=O)N(Cc1ccc(-c2noc(C(F)(F)F)n2)s1)OC [Compound 1.12, N-methoxy-N-[[5-[5-(trifluoromethyl)-1,2,4-oxadiazol-3-yl]-2-thienyl]methyl]propanamide]
≥ 80%: pest or weed control at 200 ppm [1] | pest or weed control at 200 ppm [2] | inhibition of growth at 20 ppm [3] | pest or weed control at 200 ppm [4]

CON(Cc1ccc(-c2noc(C(F)(F)F)n2)s1)C(=O)C1CCC1 [Compound 1.13, N-methoxy-N-[[5-[5-(trifluoromethyl)-1,2,4-oxadiazol-3-yl]-2-thienyl]methyl]cyclobutanecarboxamide]
≥ 80%: pest or weed control at 200 ppm [1] | pest or weed control at 200 ppm [2] | inhibition of growth at 20 ppm [3] | pest or weed control at 200 ppm [4]

CON(Cc1ccc(-c2noc(C(F)(F)F)n2)s1)C(=O)C1CC1C (stereo not shown) [Compound 1.14, N-methoxy-2-methyl-N-[[5-[5-(trifluoromethyl)-1,2,4-oxadiazol-3-yl]-2-thienyl]methyl]cyclopropanecarboxamide]
≥ 80%: pest or weed control at 200 ppm [1] | pest or weed control at 200 ppm [2] | inhibition of growth at 20 ppm [3] | pest or weed control at 200 ppm [4]

CON(Cc1ccc(-c2noc(C(F)(F)F)n2)s1)C(=O)C1(C)CC1 [Compound 1.15, N-methoxy-1-methyl-N-[[5-[5-(trifluoromethyl)-1,2,4-oxadiazol-3-yl]-2-thienyl]methyl]cyclopropanecarboxamide]
≥ 80%: pest or weed control at 200 ppm [1] | pest or weed control at 200 ppm [2] | inhibition of growth at 20 ppm [3] | pest or weed control at 200 ppm [4]

CON(Cc1ccc(-c2noc(C(F)(F)F)n2)s1)C(=O)C1(C)COC1 [Compound 1.16, N-methoxy-3-methyl-N-[[5-[5-(trifluoromethyl)-1,2,4-oxadiazol-3-yl]-2-thienyl]methyl]oxetane-3-carboxamide]
≥ 80%: pest or weed control at 200 ppm [1] | pest or weed control at 200 ppm [2] | inhibition of growth at 20 ppm [3] | pest or weed control at 200 ppm [4]

CON(Cc1ccc(-c2noc(C(F)(F)F)n2)s1)C(=O)C1CCCO1 (stereo not shown) [Compound 1.17, N-methoxy-N-[[5-[5-(trifluoromethyl)-1,2,4-oxadiazol-3-yl]-2-thienyl]methyl]tetrahydrofuran-2-carboxamide]
≥ 80%: pest or weed control at 200 ppm [1] | pest or weed control at 200 ppm [2] | inhibition of growth at 20 ppm [3] | pest or weed control at 200 ppm [4]

CCN(Cc1ccc(-c2noc(C(F)(F)F)n2)s1)C(=O)CC(F)(F)F [Compound 4.30, N-ethyl-3,3,3-trifluoro-N-[[5-[5-(trifluoromethyl)-1,2,4-oxadiazol-3-yl]-2-thienyl]methyl]propanamide]
≥ 80%: pest or weed control at 200 ppm [2] | inhibition of growth at 20 ppm [3] | pest or weed control at 200 ppm [4]

CCN(Cc1ccc(-c2noc(C(F)(F)F)n2)s1)C(C)=O [Compound 4.31, N-ethyl-N-[[5-[5-(trifluoromethyl)-1,2,4-oxadiazol-3-yl]-2-thienyl]methyl]acetamide]
≥ 80%: pest or weed control at 200 ppm [1] | inhibition of growth at 20 ppm [3] | pest or weed control at 200 ppm [4]

CCC(=O)N(Cc1ccc(-c2noc(C(F)(F)F)n2)s1)C(C)C [Compound 4.46, N-isopropyl-N-[[5-[5-(trifluoromethyl)-1,2,4-oxadiazol-3-yl]-2-thienyl]methyl]propanamide]
≥ 80%: pest or weed control at 200 ppm [2] | inhibition of growth at 20 ppm [3] | pest or weed control at 200 ppm [4]

CC(=O)N(Cc1ccc(-c2noc(C(F)(F)F)n2)s1)C(C)C [Compound 4.51, N-isopropyl-N-[[5-[5-(trifluoromethyl)-1,2,4-oxadiazol-3-yl]-2-thienyl]methyl]acetamide]
≥ 80%: pest or weed control at 200 ppm [2] | inhibition of growth at 20 ppm [3] | pest or weed control at 200 ppm [4]

CN(Cc1ccc(-c2noc(C(F)(F)F)n2)s1)C(=O)N1CCCO1 [Compound 5.56, N-methyl-N-[[5-[5-(trifluoromethyl)-1,2,4-oxadiazol-3-yl]-2-thienyl]methyl]isoxazolidine-2-carboxamide]
≥ 80%: pest or weed control at 200 ppm [1] | inhibition of growth at 20 ppm [3] | pest or weed control at 200 ppm [4]

CCN(Cc1ccc(-c2noc(C(F)(F)F)n2)s1)S(=O)(=O)CCOC [Compound 6.12, N-ethyl-2-methoxy-N-[[5-[5-(trifluoromethyl)-1,2,4-oxadiazol-3-yl]-2-thienyl]methyl]ethanesulfonamide]
≥ 80%: pest or weed control at 200 ppm [1] | inhibition of growth at 20 ppm [3] | pest or weed control at 200 ppm [4]

CCN(Cc1ccc(-c2noc(C(F)(F)F)n2)s1)S(=O)(=O)N(C)C [Compound 6.18, N-(dimethylsulfamoyl)-N-[[5-[5-(trifiuoromethyl)-1,2,4-oxadiazol-3-yl]-2-thienyl]methyl]ethanamine]
≥ 80%: pest or weed control at 200 ppm [1] | inhibition of growth at 20 ppm [3] | pest or weed control at 200 ppm [4]

CCCS(=O)(=O)N(CC)Cc1ccc(-c2noc(C(F)(F)F)n2)s1 [Compound 6.20, N-ethyl-N-[[5-[5-(trifluoromethyl)-1,2,4-oxadiazol-3-yl]-2-thienyl]methyl]propane-1-sulfonamide]
≥ 80%: pest or weed control at 200 ppm [1] | inhibition of growth at 20 ppm [3] | pest or weed control at 200 ppm [4]

CN(Cc1ccc(-c2noc(C(F)(F)F)n2)s1)S(=O)(=O)Cc1ccccc1 [Compound 6.22, N-methyl-1-phenyl-N-[[5-[5-(trifluoromethyl)-1,2,4-oxadiazol-3-yl]-2-thienyl]methyl]methanesulfonamide]
≥ 80%: pest or weed control at 200 ppm [1] | inhibition of growth at 20 ppm [3] | pest or weed control at 200 ppm [4]
